Legend:
d-U937 cells = test: MTT assay, cell viability; type: cell-based, human
Method: PMA-differentiated U937 cells were pre-incubated with test compound (10 μg/mL) or vehicle for 4 hr in 5% FCS or 10% FCS for 24 hr. The supernatant was replaced with new media (200 μL) and MTT stock solution (10 μL, 5 mg/mL) was added to each well. After 1 hr incubation, the media were removed, 200 μL of DMSO was added to each well and the plates were shaken lightly for 1 hr prior to reading the absorbance at 550 nm. The percentage loss of cell viability was calculated for each well relative to vehicle (0.5% DMSO)-treatment.

[1] = system: LPS-induced airway neutrophilia in mice; test: LPS-induced airway neutrophil accumulation in mice; type: in vivo, mouse; conditions: i-t; for Neutrophil numbers in BALF: mean ± SEM
Method: Non-fasted BALB/c mice (6-8 weeks old) were dosed with vehicle or with test compound by intra-tracheal administration (dose volume 20 μL) at time points T=−2 hr, −8 hr, or −12 hr with respect to the start of LPS treatment. The LPS was prepared in a solution of 0.5 mg/mL and aerosolised using a De Vibliss ultrasonic nebuliser 2000 (7 mL during 30 min exposure). At eight hr after LPS challenge, the trachea was cannulated and bronchoalveolar lavage fluid (BALF) extracted by infusing and then withdrawing PBS (1 mL) into the lungs via the tracheal catheter. This procedure was repeated to give a yield of approximately 2 mL lavage fluid. Total cell numbers in the BALF samples were measured using a haemocytometer. Cytospin smears of the BALF samples were prepared by centrifugation at 1200 rpm for 2 min at RT and stained using a DiffQuik stain system (Dade Behring) for differential cell counts. Cells were counted using oil immersion microscopy. Data are expressed as neutrophil number of cells per mL of BALF (mean±S.E.M).

[2] = system: cigarette smoke-induced cell accumulation and biomarkers in murine BALF; test: Cigarette smoke model; type: in vivo, mouse; conditions: for % inhibition, Macrophages in BAL / % inhibition, Neutrophils in BAL / Cell numbers in BAL, Macrophages / Cell numbers in BAL, Neutrophils: mice, CS, intra-nasal; for Cell numbers in BAL, Macrophages / Cell numbers in BAL, Neutrophils: mean ± SEM; for Inhibition (%) of CXCL1 in BALF / Inhibition (%) of IL-17 in BALF / Inhibition (%) of MCP-1 in BALF / Inhibition (%) of MDA in BALF / Inhibition (%) of Osteopontin in BALF / Inhibition (%) of TNF α in BALF: with respect to tobacco
Method: A/J mice (males, 5 weeks old) were exposed to cigarette smoke (4% cigarette smoke, diluted with compressed air) for 30 min/day for 11 days using a Tobacco Smoke Inhalation Experiment System for small animals (Model SIS-CS; Sibata Scientific Technology, Tokyo, Japan). Test substances were administered once daily for 3 days after the final cigarette smoke exposure (intra-nasal dose comprising 35 μL of solution in 50% DMSO/isotonic saline).
At 12 hr after administration of the last dose, animals were anesthetized, the trachea was cannulated and bronchial alveolar lavage (BAL) was carried out by the instillation into and then withdawal from the lungs, of PBS (100 mL/kg). Total cell numbers in the BALF samples were measured using a haemocytometer under a phase-contrast microscope. The proportions of alveolar macrophages and neutrophils were determined by FACS analysis using anti-mouse MOMA2-FITC (macrophage) or anti-mouse 7/4 (neutrophil).
Cells were suspended in PBS and were incubated with anti-MOMA2-FITC (2 μg/mL, Catalogue no SM065F, Acris Antibodies GmbH, Herford, Germany) or anti-7/4-FITC (2 μg/mL, Catalogue no CL050F, Acris Antibodies GmbH, Herford, Germany) for 30 min at 30° C., and also counterstained with propidium iodide (2 μg/mL) to allow exclusion of necrotic cells. The cells were washed with PBS, and transferred to FACS tubes. Samples was set in a flow cytometer (ALTRA II; Beckman Coulter Japan, Tokyo, Japan), and a single-parameter FL2 [PMT2] (FITC) histogram with log x-axis was plotted to illustrate relative intensity of FITC.
Data files are stored for subsequent analysis using Kaluza analysis software (ver. 1.2) to calculate the proportion of each cell type. The levels of CXCL1(KC), MCP1, TNFα, IL-17 or osteopontin in BALF were determined using Quentikine® mouse KC, MCP1, TNFα, IL-17 or osteopontin ELISA kit (R&D systems, Inc., Minneapolis, Minn., USA). The presence of malondialdehyde was measured using OxiSelect® TBARS Assay Kit (MDA Quantitation; Cell Biolabs Inc, San Diego, Calif., USA).

COCCOCCOCC#Cc1cccc2nc(Cn3nc(-c4cc(O)cc(F)c4)c4c(N)ncnc43)n(Cc3ccccc3C(F)(F)F)c(=O)c12 [Compound (I), 2-((4-Amino-3-(3-fluoro-5-hydroxyphenyl)-1H-pyrazolo[3,4-d]pyrimidin-1-yl)methyl)-5-(3-(2-(2-methoxyethoxy)ethoxy)prop-1-yn-1-yl)-3-(2-(trifluoromethyl)benzyl)quinazolin-4(3H)-one]
effects on cell viability (in words) (d-U937 cells): No effects | Cell Viability MTT Assay in d-U937 cells at 4 hr (d-U937 cells; 10 μg/mL, 4 hr): −ve (−ve indicates a value of <30% inhibition at 10 μg/mL) | Cell Viability MTT Assay in d-U937 cells at 24 hr (d-U937 cells; 10 μg/mL, 24 hr): −ve (−ve indicates a value of <30% inhibition at 10 μg/mL) | % inhibition of neutrophil numbers in BALF ([1]; 0.05 mg/mL, pre-dose 2 hr): 19% | Neutrophil numbers in BALF ([1]; 0.05 mg/mL, pre-dose 2 hr): 13.8 ± 2.5 x10^5/mL | % inhibition of neutrophil numbers in BALF ([1]; 0.2 mg/mL, pre-dose 2 hr): 53% | Neutrophil numbers in BALF ([1]; 0.2 mg/mL, pre-dose 2 hr): 8.0 ± 1.4 x10^5/mL | % inhibition of neutrophil numbers in BALF ([1]; 0.2 mg/mL, pre-dose 8 hr): 45% | Neutrophil numbers in BALF ([1]; 0.2 mg/mL, pre-dose 8 hr): 9.4 ± 2.0 x10^5/mL | % inhibition of neutrophil numbers in BALF ([1]; 0.2 mg/mL, pre-dose 12 h): 23% | Neutrophil numbers in BALF ([1]; 0.2 mg/mL, pre-dose 12 h): 13.1 ± 2.5 x10^5/mL | % inhibition of neutrophil numbers in BALF ([1]; 1.0 mg/mL, pre-dose 2 hr): 68% | Neutrophil numbers in BALF ([1]; 1.0 mg/mL, pre-dose 2 hr): 5.5 ± 0.9 x10^5/mL | potency versus compound A on cigarette-smoke induced cell accumulation in murine BALF (in words) ([2]; contemporaneous study): more potent inhibitor | % inhibition, Macrophages in BAL ([2]; 0.02 mg/mL): 32% | % inhibition, Neutrophils in BAL ([2]; 0.02 mg/mL): 26% | Cell numbers in BAL, Macrophages ([2]; 0.02 mg/mL): 13.6 ± 0.2 x10^4/mL | Cell numbers in BAL, Neutrophils ([2]; 0.02 mg/mL): 8.6 ± 0.2 x10^4/mL | % inhibition, Macrophages in BAL ([2]; 0.2 mg/mL): 63% | % inhibition, Neutrophils in BAL ([2]; 0.2 mg/mL): 54% | Cell numbers in BAL, Macrophages ([2]; 0.2 mg/mL): 9.5 ± 0.2 x10^4/mL | Cell numbers in BAL, Neutrophils ([2]; 0.2 mg/mL): 6.0 ± 0.1 x10^4/mL | % inhibition, Macrophages in BAL ([2]; 2 mg/mL): 79% | % inhibition, Neutrophils in BAL ([2]; 2 mg/mL): 68% | Cell numbers in BAL, Macrophages ([2]; 2 mg/mL): 7.4 ± 0.3 x10^4/mL | Cell numbers in BAL, Neutrophils ([2]; 2 mg/mL): 4.6 ± 0.1 x10^4/mL | Inhibition (%) of CXCL1 in BALF ([2]; Compound (I) 0.02 mg/mL): 32% | Inhibition (%) of IL-17 in BALF ([2]; Compound (I) 0.02 mg/mL): 27% | Inhibition (%) of MCP-1 in BALF ([2]; Compound (I) 0.02 mg/mL): 28% | Inhibition (%) of MDA in BALF ([2]; Compound (I) 0.02 mg/mL): 25% | Inhibition (%) of Osteopontin in BALF ([2]; Compound (I) 0.02 mg/mL): 22% | Inhibition (%) of TNF α in BALF ([2]; Compound (I) 0.02 mg/mL): 22% | Inhibition (%) of CXCL1 in BALF ([2]; Compound (I) 0.2 mg/mL): 52% | Inhibition (%) of IL-17 in BALF ([2]; Compound (I) 0.2 mg/mL): 41% | Inhibition (%) of MCP-1 in BALF ([2]; Compound (I) 0.2 mg/mL): 45% | Inhibition (%) of MDA in BALF ([2]; Compound (I) 0.2 mg/mL): 42% | Inhibition (%) of Osteopontin in BALF ([2]; Compound (I) 0.2 mg/mL): 44% | Inhibition (%) of TNF α in BALF ([2]; Compound (I) 0.2 mg/mL): 38% | Inhibition (%) of CXCL1 in BALF ([2]; Compound (I) 2 mg/mL): 71% | Inhibition (%) of IL-17 in BALF ([2]; Compound (I) 2 mg/mL): 60% | Inhibition (%) of MCP-1 in BALF ([2]; Compound (I) 2 mg/mL): 78% | Inhibition (%) of MDA in BALF ([2]; Compound (I) 2 mg/mL): 64% | Inhibition (%) of Osteopontin in BALF ([2]; Compound (I) 2 mg/mL): 63% | Inhibition (%) of TNF α in BALF ([2]; Compound (I) 2 mg/mL): 62%

— patent publication US9227977B2, “Phosphoinositide 3-kinase inhibitors” (RESPIVERT LTD., priority 2013, dated 2016)
